Results: patent publication US6211244A, “Calcium receptor-active compounds” (priority 1995, dated 2001)

Biological target: T1, human calcium receptor (Homo sapiens, UniProt P41180, R990G)
T1 construct: expressed in transfected cells; host or cells: HEK 293
T1 sequence (P41180 20-1078 R990G): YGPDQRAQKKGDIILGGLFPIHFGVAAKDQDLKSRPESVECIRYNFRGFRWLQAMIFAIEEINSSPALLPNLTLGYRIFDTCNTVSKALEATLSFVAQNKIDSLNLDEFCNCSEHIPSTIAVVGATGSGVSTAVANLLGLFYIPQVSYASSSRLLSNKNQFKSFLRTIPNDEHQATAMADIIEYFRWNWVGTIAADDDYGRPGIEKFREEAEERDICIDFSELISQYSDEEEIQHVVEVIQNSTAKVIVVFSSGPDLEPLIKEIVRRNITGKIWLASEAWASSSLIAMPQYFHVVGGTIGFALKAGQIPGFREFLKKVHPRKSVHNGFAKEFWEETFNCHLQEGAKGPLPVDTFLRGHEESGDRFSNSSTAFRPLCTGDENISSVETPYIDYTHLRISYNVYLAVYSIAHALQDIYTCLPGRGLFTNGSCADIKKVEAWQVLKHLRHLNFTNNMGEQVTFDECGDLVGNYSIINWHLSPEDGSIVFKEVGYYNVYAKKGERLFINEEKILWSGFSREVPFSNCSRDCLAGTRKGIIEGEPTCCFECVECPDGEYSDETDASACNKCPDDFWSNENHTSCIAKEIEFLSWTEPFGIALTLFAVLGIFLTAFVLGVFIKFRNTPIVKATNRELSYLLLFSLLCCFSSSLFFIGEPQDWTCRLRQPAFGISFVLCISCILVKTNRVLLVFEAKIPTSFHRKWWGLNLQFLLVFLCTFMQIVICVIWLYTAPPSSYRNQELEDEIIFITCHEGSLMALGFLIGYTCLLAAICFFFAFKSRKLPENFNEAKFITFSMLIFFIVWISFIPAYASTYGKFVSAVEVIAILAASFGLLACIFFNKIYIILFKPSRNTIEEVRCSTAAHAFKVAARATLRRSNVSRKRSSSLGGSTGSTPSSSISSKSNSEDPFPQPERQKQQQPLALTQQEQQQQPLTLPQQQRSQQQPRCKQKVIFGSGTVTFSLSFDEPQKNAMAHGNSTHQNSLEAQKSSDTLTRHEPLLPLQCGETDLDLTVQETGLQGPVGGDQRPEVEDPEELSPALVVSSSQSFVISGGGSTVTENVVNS
Assay: increases in [Ca^2+ ]i in HEK-293 cells expressing the human calcium receptor (fura-2 loaded HEK 293/pHuPCaR4.0 cells), % activity
Assay type: cell-based
Details: for activity at […]: HEK293

| Structure (SMILES) | % activity (33 ng/mL) [%] | % activity (330 ng/mL) [%] | % activity (3300 ng/mL) [%] | % activity (330 ng/mL, listed as 4U) [%] | activity at […] (33 ng/mL) [%] | activity at […] (330 ng/mL) [%] |
| --- | --- | --- | --- | --- | --- | --- |
| COc1ccccc1CCCN[C@H](C)c1cccc2ccccc12 [Compound 16I] | 96 | 117 | 121 | – | – | – |
| COc1ccc(C(C)NC(C)c2cccc3ccccc23)cc1 (centres unmarked) [Compound 16J] | 47 | 76 | 92 | – | – | – |
| COc1ccc([C@@H](C)N[C@H](C)c2cccc(OC)c2)cc1 [Compound 16L, (R,R)-N-[1-(4-methoxyphenyl)ethyl]-1-(3-methoxyphenyl)ethylamine] | 98 | 138 | 146 | – | – | – |
| COc1ccc([C@@H](C)N[C@@H](C)c2cccc(OC)c2)cc1 [Compound 16M, (S,R)-N-[1-(4-methoxyphenyl)ethyl]-1-(3-methoxyphenyl)ethylamine] | 11 | 68 | 130 | – | – | – |
| COc1cccc(C(C)NC(C)c2cccc(OC)c2)c1 (centres unmarked) [Compound 16N] | 82 | 159 | 122 | – | – | – |
| COc1cccc(C(C)NC(C)c2cccc(OC)c2)c1 (centres unmarked) [Compound 16O] | 21 | 81 | 129 | – | – | – |
| C[C@@H](NCc1ccc2c(c1)OCO2)c1cccc2ccccc12 [Compound 16R] | 76 | 100 | – | – | – | – |
| COc1cc(C)c(CN[C@H](C)c2cccc3ccccc23)cc1C [Compound 16U] | 50 | 85 | – | – | – | – |
| CCOc1ccc(CN[C@H](C)c2cccc3ccccc23)cc1 [Compound 16W] | 73 | 102 | – | – | – | – |
| C[C@@H](NCc1ccc(C#N)cc1)c1cccc2ccccc12 [Compound 16Z] | 51 | 88 | – | – | – | – |
| CC(=O)c1ccc(CN[C@H](C)c2cccc3ccccc23)cc1 [Compound 17C] | 99 | 120 | 113 | – | – | – |
| C[C@@H](NCc1ccc(Br)cc1)c1cccc2ccccc12 [Compound 17D] | 91 | 108 | – | – | – | – |
| C[C@@H](NCc1ccc(I)cc1)c1cccc2ccccc12 [Compound 17E] | 110 | 110 | 116 | – | – | – |
| C[C@@H](NCc1ccc(C(F)(F)F)cc1)c1cccc2ccccc12 [Compound 17F] | 90 | 111 | – | – | – | – |
| COc1ccc(C(N[C@H](C)c2cccc3ccccc23)C2CC2)cc1 (some centres unmarked) [Compound 17H] | 111 | 124 | 126 | – | – | – |
| CC(NC(C)c1cccc2ccccc12)c1ccc(Cl)c(Cl)c1 (centres unmarked) [Compound 17J] | 122 | 118 | 116 | – | – | – |
| CC(NC(C)c1cccc2ccccc12)c1ccc(Cl)c(Cl)c1 (centres unmarked) [Compound 17K] | 73 | 97 | 98 | – | – | – |
| COc1ccc(CN[C@H](C)c2cccc3ccccc23)c(C)c1C [Compound 17L] | 78 | 104 | 111 | – | – | – |
| COc1ccc(CN[C@H](C)c2cccc3ccccc23)cc1Cl.Cl [Compound 17M, N-(3-chloro-4-methoxybenzyl)-(R)-1-(1-naphthyl) ethylamine hydrochloride] | 99 | 115 | – | – | – | – |
| Cc1ccc([C@@H](C)N[C@H](C)c2cccc3ccccc23)cc1C [Compound 17N] | 86 | 108 | – | – | – | – |
| COc1cccc([C@@H](C)NCCCc2ccccc2I)c1 [Compound 17R] | 65 | 98 | – | – | – | – |
| COc1ccc(CNCc2ccccc2OC)cc1C [Compound 17V] | 27 | 66 | 91 | – | – | – |
| Cc1cc(C(C)NC(C)c2cccc3ccccc23)ccc1O (centres unmarked) [Compound 17W] | 67 | 92 | – | – | – | – |
| COc1ccc(CNCc2cccc3ccccc23)cc1C [Compound 17Y] | 79 | 94 | 109 | – | – | – |
| COc1ccc(CNC(C)c2cccc3ccccc23)cc1C (centres unmarked) [Compound 17Z] | 73 | 99 | – | – | – | – |

| Structure (SMILES) | % activity (33 ng/mL) [%] | % activity (330 ng/mL) [%] | % activity (3300 ng/mL) [%] | % activity (330 ng/mL, listed as 4U) [%] | activity at […] (33 ng/mL) [%] | activity at […] (330 ng/mL) [%] |
| --- | --- | --- | --- | --- | --- | --- |
| COc1ccc(CNC(C)c2ccc(F)c3ccccc23)cc1C (centres unmarked) [Compound 18A] | 88 | 111 | – | – | – | – |
| COc1ccc(CNC(C)c2c(OC)ccc3ccccc23)cc1C (centres unmarked) [Compound 18B] | 69 | 96 | 111 | – | – | – |
| COc1ccc(CNC(C)c2ccc(OC)c3ccccc23)cc1C (centres unmarked) [Compound 18C] | 60 | 87 | 99 | – | – | – |
| COc1ccc(CNC(C)c2cccc(-c3ccccc3)c2)cc1C (centres unmarked) [Compound 18T] | 52 | 74 | 99 | – | – | – |
| C[C@@H](NCCCc1ccccc1Cl)c1cccc(OCC(F)(F)F)c1 [Compound 20Y] | 74 | 95 | 117 | – | – | – |
| COc1cccc([C@@H](C)NC(C)CCc2ccccc2Cl)c1 (some centres unmarked) [Compound 21C = 4U] | – | – | – | 72 | – | – |
| COc1cccc([C@@H](C)N[C@@H](C)CCc2ccccc2)c1 [Compound 21E, (S,R)-N-(4-pbenyl-2-butyl)-1-(3-methoxyphenyl)ethylamine] | 64 | 94 | – | – | – | – |
| COc1cccc([C@@H](C)NCCCc2cccc(OC(F)(F)F)c2)c1 [Compound 21M] | 58 | 102 | – | – | – | – |
| COc1cccc([C@@H](C)NCCCc2ccc(OC(F)(F)F)cc2)c1 [Compound 21N] | 42 | 98 | 124 | – | – | – |
| COc1cccc([C@@H](C)NCCCc2ccccc2C(F)(F)F)c1 [Compound 21O] | 75 | 109 | – | – | – | – |
| COc1cccc([C@@H](C)NCCCc2cccc(C(F)(F)F)c2)c1 [Compound 21P] | 56 | 92 | – | – | – | – |
| COc1cccc([C@@H](C)NCCCc2ccccc2F)c1 [Compound 21R] | 66 | 100 | – | – | – | – |
| CCCOc1cccc([C@@H](C)NCCCc2ccccc2Cl)c1 [Compound 21S] | 85 | 131 | 132 | – | – | – |
| CC(C)Oc1cccc([C@@H](C)NCCCc2ccccc2Cl)c1 [Compound 21T] | 53 | 112 | 133 | – | – | – |
| C[C@@H](NCCCc1ccccc1Cl)c1cccc(OCC(F)F)c1 [Compound 21V] | 99 | 116 | 122 | – | – | – |
| COc1cccc([C@@H](C)N[C@@H](C)CCc2cccc(C(F)(F)F)c2)c1 [Compound 21X] | 51 | 101 | 119 | – | – | – |
| COc1cccc([C@@H](C)N[C@H](C)CCc2cccc(C(F)(F)F)c2)c1 [Compound 21Y, (R,R)-N-[4-(3-trifluoromethylphenyl)-2-butyl]-1-(3-methoxyphenyl)ethylamine] | 68 | 100 | – | – | – | – |
| C[C@@H](NCCCc1cccc(C(F)(F)F)c1)c1cccc2ccccc12 [Compound 22J] | 71 | 99 | – | – | – | – |
| C[C@H](CCc1cccc(OC(F)(F)F)c1)N[C@@H](C)c1cccc2ccccc12 [Compound 22X, (S,R)-N-[4-(3-trifluoromethoxyphenyl)-2-butyl]-1-(1-naphthyl)ethylamine] | – | – | – | – | 48 | 86 |
| C[C@H](CCc1cccc(OC(F)(F)F)c1)N[C@H](C)c1cccc2ccccc12 [Compound 22Y, (R,R)-N-[4-(3-trifluoromethoxyphenyl)-2-butyl]-1-(1-naphthyl)ethylamine] | – | – | – | – | 64 | 114 |
| COc1cccc([C@@H](C)N[C@H](C)CCc2cccc(OC(F)(F)F)c2)c1 [Compound 23A, (R,R)-N-[4-(3-trifluoromethoxyphenyl)-2-butyl]-1-(3-methoxyphenyl)ethylamine] | 67 | 103 | – | – | – | – |
| Cc1ccc(CNCc2cccc3c(Br)cccc23)cc1C [Compound 23D] | 35 | 66 | 91 | – | – | – |
| C[C@@H](NCc1cccc(OC(F)(F)F)c1)c1cccc2ccccc12 [Compound 23E] | 102 | 113 | 137 | – | – | – |
| C[C@@H](NCc1ccc(OC(F)(F)F)cc1)c1cccc2ccccc12 [Compound 23F] | 45 | 82 | – | – | – | – |
